Measured values: ChEMBL document CHEMBL5154808, “Novel β-Hairpin Antimicrobial Peptides Containing the β-Turn Sequence of -RRRF- Having High Cell Selectivity and Low Incidence of Drug Resistance” (J Med Chem, 2022)
Activity calls are given as the source filed them. The rule behind the calls is not given here.

Tests used:
[1] = system: Escherichia coli; experiment: Antimicrobial activity against Escherichia coli ATCC 25922 assessed as reduction in bacterial growth incubated for 18 hrs in presence of 150 mM NaCl by CLSI protocol based broth microdilution method (reference value: 8 uM); assay type: functional
[2] = system: Escherichia coli; experiment: Antimicrobial activity against Escherichia coli ATCC 25922 assessed as reduction in bacterial growth incubated for 18 hrs in presence of 4.5 mM KCl by CLSI protocol based broth microdilution method (reference value: 8 uM); assay type: functional
[3] = system: Escherichia coli; experiment: Antimicrobial activity against Escherichia coli ATCC 25922 assessed as reduction in bacterial growth incubated for 18 hrs in presence of 1 mM MgCl2 by CLSI protocol based broth microdilution method (reference value: 8 uM); assay type: functional
[4] = system: Staphylococcus aureus; experiment: Antimicrobial activity against Staphylococcus aureus ATCC 25923 assessed as reduction of bacterial growth at 2 times MIC incubated for 18 hrs in presence of trypsin by CLSI protocol based broth microdilution method; assay type: functional, organism-based
[5] = system: Escherichia coli; experiment: Synergistic antibacterial activity against kanamycin-resisitant Escherichia coli ATCC 25922 assessed as fractional inhibitory concentration index incubated for 18 hrs in presence of kanamycin by checker board assay; assay type: functional
[6] = system: Escherichia coli; experiment: Antimicrobial activity against Escherichia coli ATCC 25922 assessed as reduction in bacterial growth incubated for 18 hrs in presence of 150 mM NaCl by CLSI protocol based broth microdilution method (reference value: 4 uM); assay type: functional
[7] = system: Escherichia coli; experiment: Antimicrobial activity against Escherichia coli ATCC 25922 assessed as reduction in bacterial growth incubated for 18 hrs in presence of 4 uM FeCl3 by CLSI protocol based broth microdilution method (reference value: 4 uM); assay type: functional
[8] = system: Staphylococcus aureus; experiment: Antimicrobial activity against Staphylococcus aureus ATCC 25923 assessed as reduction in bacterial growth incubated for 18 hrs in presence of 10% serum by CLSI protocol based broth microdilution method (reference value: 4 uM); assay type: functional
[9] = system: Staphylococcus aureus; experiment: Antimicrobial activity against Staphylococcus aureus ATCC 25923 assessed as reduction in bacterial growth incubated for 18 hrs in presence of 1 mM MgCl2 by CLSI protocol based broth microdilution method (reference value: 4 uM); assay type: functional
[10] = system: Staphylococcus aureus; experiment: Antimicrobial activity against Staphylococcus aureus ATCC 25923 assessed as reduction in bacterial growth incubated for 18 hrs in presence of 4.5 mM KCl by CLSI protocol based broth microdilution method (reference value: 4 uM); assay type: functional
[11] = system: Staphylococcus aureus; experiment: Synergistic antibacterial activity against polymyxin B-resistant Staphylococcus aureus ATCC 25923 assessed as fractional inhibitory concentration index incubated for 18 hrs in presence of polymyxin B by checker board assay; assay type: functional

Substance	MIC [1] [µM]	MIC [2] [µM]	MIC [3] [µM]	Activity [4]	fractional inhibitory concentration index (FICI) [5]	MIC [6] [µM]	MIC [7] [µM]	MIC [8] [µM]	MIC [9] [µM]	MIC [10] [µM]	fractional inhibitory concentration index (FICI) [11]
H-KWKWKRRRFKWKWK-NH2	8	8	8	Active	0.3125	–	–	–	–	–	–
H-RIRIRRRRFRIRIR-NH2	–	–	–	–	–	16	8	8	8	4	0.3125
